Literature values as cited in patent US6586005B1, “Extended release formulation of etodolac” (Ranbaxy Laboratories Limited, priority 1999, dated 2003).

SMILES: CCc1cccc2c3c([nH]c12)C(CC)(CC(=O)O)OCC3 (centres unmarked) [Etodolac, 1,8-diethyl-1,3,4,9-tetrahydropyrano [3,4-b] indole-1-acetic acid]
- Difference between solubility at pH 5 to pH 7 (pH 5 versus pH 7): thirty
- Aqueous solubility (pH independent below pH 3): very low aqueous solubility
